We go through 5 compounds from US12630785B2, “Liquid fabric care compositions comprising capsules” (The Procter & Gamble Company, priority 2020, dated 2026).

Series [1] in a line: Capsule perfume leakage in liquid fabric enhancer (LFE), headspace SPME GC/MS. Format: physicochemical. On the procedure: The testing of capsule leakage in liquid compositions (e.g., liquid fabric enhancer/“LFE” compositions and/or heavy-duty liquid/“HDL” detergents) is performed as follows. […] The 1 gram aliquot in the 7 ml vial is then mixed on a stirring plate for 24 h at 500 rpm, thereby ensuring that the capsules are broken by the grinding action of the stir bar against the bottom of the 7 ml vial. Optical microscopy can be used to verify that no more intact capsules remain. In case such capsules are found, the step is to repeated for an additional 24 h, or until all or almost all capsules are broken. Then, the formulation containing broken capsules is introduced into GC vials in a similar manner as for step (a). This yields total oil samples. It is to be noted that the capsule sample and the total oil sample are not analyzed on the same day, as there is a need to prepare the total oil sample after the capsule sample has been removed from storage. […] The perfume oil composition formulated herein is representative of the perfume oil composition that is present in the slurry. Then the free oil formulation is introduced into GC vials in a similar manner as for step (a). This yields reference samples, which must be used when analyzing both the capsule sample and the total oil sample. […] Two headspace vials are prepared for each sample. The sealed headspace vials are then allowed to equilibrate. Samples reach equilibrium after 3 hours at room temperature, but can be left to sit longer without detriment or change to the results, up until 24 hours after sealing the headspace vial. After equilibrating, the samples are analyzed by GC/MS. […] The perfume composition is analyzed by fast GC/MS in full scan mode. Ion extraction of the specific mass for each component is obtained. The leakage is calculated as follows, separately for the capsule sample and total oil sample, where “Area” denotes the area under the chromatogram peak corresponding to the PRM of interest: Once calculated for all PRMs for both the total oil sample and the capsule sample, the corrected PRM leakage can be calculated using the following formula: Once the corrected PRM leakage has been calculated for all PRMs, the Average leakage can be found by taking the arithmetic mean of each corrected PRM leakage. […] The resulting products are stored for one week at 35° C. At the end of the storage period, samples of each product composition are analyzed for perfume leakage out of the capsule using headspace analysis. The data is reported as a percentage, determined by comparing the amount of the individual perfume raw materials found in the headspace to the amount originally provided to the capsules.

Series [2] in a line: Capsule perfume leakage in heavy-duty liquid (HDL) detergent, headspace SPME GC/MS. Type of series: physicochemical. On the procedure:
The testing of capsule leakage in liquid compositions (e.g., liquid fabric enhancer/“LFE” compositions and/or heavy-duty liquid/“HDL” detergents) is performed as follows. […] The 1 gram aliquot in the 7 ml vial is then mixed on a stirring plate for 24 h at 500 rpm, thereby ensuring that the capsules are broken by the grinding action of the stir bar against the bottom of the 7 ml vial. Optical microscopy can be used to verify that no more intact capsules remain. In case such capsules are found, the step is to repeated for an additional 24 h, or until all or almost all capsules are broken. Then, the formulation containing broken capsules is introduced into GC vials in a similar manner as for step (a). This yields total oil samples. It is to be noted that the capsule sample and the total oil sample are not analyzed on the same day, as there is a need to prepare the total oil sample after the capsule sample has been removed from storage. […] The perfume oil composition formulated herein is representative of the perfume oil composition that is present in the slurry. Then the free oil formulation is introduced into GC vials in a similar manner as for step (a). This yields reference samples, which must be used when analyzing both the capsule sample and the total oil sample. […] Two headspace vials are prepared for each sample. The sealed headspace vials are then allowed to equilibrate. […] After equilibrating, the samples are analyzed by GC/MS. […] The perfume composition is analyzed by fast GC/MS in full scan mode. Ion extraction of the specific mass for each component is obtained. The leakage is calculated as follows, separately for the capsule sample and total oil sample, where “Area” denotes the area under the chromatogram peak corresponding to the PRM of interest: Once calculated for all PRMs for both the total oil sample and the capsule sample, the corrected PRM leakage can be calculated using the following formula: Once the corrected PRM leakage has been calculated for all PRMs, the Average leakage can be found by taking the arithmetic mean of each corrected PRM leakage. […] The resulting products are stored for one week at 35° C. At the end of the storage period, samples of each product composition are analyzed for perfume leakage out of the capsule using headspace analysis. The data is reported as a percentage, determined by comparing the amount of the individual perfume raw materials found in the headspace to the amount originally provided to the capsules.

Where [3] appears, read: PRM of Perfume 1 out of Comparative Example 4-1 capsules (polyacrylate shell), LFE Composition 1, 0.25 wt % perfume.
Where [4] appears, read: PRM of Perfume 1 out of Comparative Example 6-1 capsules (no second shell component), LFE Composition 1.
[5] abbreviates: PRM of Perfume 1 out of Comparative Example 10-1 capsules (per EP2500087B1), LFE Composition 1.
[6] abbreviates: PRM of Perfume 1 out of Comparative Example 10-2 capsules (per WO2010013250A2, with IPM), LFE Composition 1.
Where [7] appears, read: PRM of Perfume 1 out of Example 2, Sample A capsules, LFE Composition 1 (Ester Quat 1).
[8] abbreviates: PRM of Perfume 1 out of Example 2, Sample A capsules, LFE Composition 2 (Ester Quat 2).
[9] abbreviates: PRM of Perfume 1 out of Example 2, Sample A capsules, LFE Composition 3 (Ester Quat 3).
The mark [10] stands for this setting: PRM of Perfume 1 out of Example 4-1 capsules (silica shell), LFE Composition 1, 0.25 wt % perfume.
The mark [11] stands for this setting: PRM of Perfume 1 out of Example 6-1 capsules (w/ second shell component), LFE Composition 1.
Where [12] appears, read: PRM of Perfume 1 out of Example 10-1 capsules (Sample F, Perfume 1/IPM 40/60), LFE Composition 1.
[13] abbreviates: PRM of Perfume 1 out of Example 10-2 capsules (Sample A), LFE Composition 1.
Setting [14] is: PRM of Perfume 1 out of Comparative Example 5-1 capsules (polyacrylate shell).
The mark [15] stands for this setting: PRM of Perfume 1 out of Comparative example 5-2 capsules (per EP2500087B1).
The mark [16] stands for this setting: PRM of Perfume 1 out of Comparative example 5-3 capsules (per WO2010013250A2).
Setting [17] is: PRM of Perfume 1 out of Example 5-1 capsules (silica shell).

As for `CC(=O)OC1CCCCC1C(C)(C)C` (centres unmarked) [(2-tert-butylcyclohexyl) acetate], the “Leakage (as %) after 1 week at 35° C.” value in series [1] (setting [3]) came to 4%; in series [1] (setting [4]), 5%; in series [1] (setting [5]) it was 91%; in series [1] (setting [6]) it was 92%; in series [1] (setting [7]), 2.2%; in series [1] (setting [8]), 1.1%. Also, the “Leakage (as %) after 1 week at 35° C.” value worked out at 1.3% in series [1] (setting [9]); 10% in series [1] (setting [10]); 11% in series [1] (setting [11]); 20% in series [1] (setting [12]); 11% in series [1] (setting [13]); 1% in series [2] (setting [14]). Further, the “Leakage (as %) after 1 week at 35° C.” value in series [2] (setting [15]) was determined as 105%; in series [2] (setting [16]) it was 101%; in series [2] (setting [17]), 33%.
As for `CC(=O)OC1CC2CC1C1CC=CC21` (centres unmarked) [Verdyl acetate], the “Leakage (as %) after 1 week at 35° C.” value was found to be 4% in series [1] (setting [3]); 20% in series [1] (setting [4]); 89% in series [1] (setting [5]); 94% in series [1] (setting [6]); 1.2% in series [1] (setting [7]); 0.8% in series [1] (setting [8]). Moreover, the “Leakage (as %) after 1 week at 35° C.” value in series [1] (setting [9]) was 1.2%; in series [1] (setting [10]) it was 5%; in series [1] (setting [11]), 7%; in series [1] (setting [12]), 17%; in series [1] (setting [13]), 7%; in series [1] (PRM of Perfume 2 out of Capsule Sample C, LFE Composition 1) it was 6%. The “Leakage (as %) after 1 week at 35° C.” value in series [1] (PRM of Perfume 3 out of Capsule Sample D, LFE Composition 1) came out at 8%; in series [1] (PRM of Perfume 4 out of Comparative Example 9-1 capsules (per EP3078415A), LFE Composition 1) it was 67%; in series [1] (PRM of Perfume 4 out of Comparative Example 9-2 capsules (per EP3078415A, additional TEOS), LFE Composition 1), 72%; in series [1] (PRM of Perfume 4 out of Example 9-1 capsules (Sample E), LFE Composition 1), 13%; in series [2] (setting [14]), 1%; in series [2] (setting [15]), 107%. Also, the figures for the “Leakage (as %) after 1 week at 35° C.” value in series [2] (setting [16]) and in series [2] (setting [17]) were 104% and 26%, respectively.
`CC(=O)OC1CCC(C(C)(C)C)CC1` (centres unmarked) [(4-tert-butylcyclohexyl) acetate]: the “Leakage (as %) after 1 week at 35° C.” value in series [1] (setting [3]) is 3%; in series [1] (setting [4]), 4%; in series [1] (setting [5]) it was 85%; in series [1] (setting [6]) it was 91%; in series [1] (setting [7]) it was 0.1%; in series [1] (setting [8]) it was 0.1%. Besides, the “Leakage (as %) after 1 week at 35° C.” value in series [1] (setting [9]) turned out to be 0.7%; in series [1] (setting [10]) it was 6%; in series [1] (setting [11]) it was 7%; in series [1] (setting [12]), 15%; in series [1] (setting [13]), 7%; in series [2] (setting [14]) it was 0%. For the same compound, the “Leakage (as %) after 1 week at 35° C.” value in series [2] (setting [15]) is 108%; in series [2] (setting [16]), 100%; in series [2] (setting [17]) it was 27%.
As for `CCC(C)CCCC(C)(C)O` (centres unmarked) [Tetrahydro myrcenol], the “Leakage (as %) after 1 week at 35° C.” value was 10% in series [1] (setting [3]); 86% in series [1] (setting [4]); 88% in series [1] (setting [5]); 95% in series [1] (setting [6]); 2.4% in series [1] (setting [7]); 1.2% in series [1] (setting [8]). The “Leakage (as %) after 1 week at 35° C.” value in series [1] (setting [9]) is listed as 1.2%; in series [1] (setting [10]), 8%; in series [1] (setting [11]), 7%; in series [1] (setting [12]), 17%; in series [1] (setting [13]), 7%; in series [2] (setting [14]) it was 3%. For the same compound, the “Leakage (as %) after 1 week at 35° C.” value in series [2] (setting [15]) stood at 107%; in series [2] (setting [16]) it was 105%; in series [2] (setting [17]) it was 26%.
Consider `CC12CCC(CC1)C(C)(C)O2` [Eucalyptol], for which the “Leakage (as %) after 1 week at 35° C.” value was 5% in series [1] (setting [3]); 72% in series [1] (setting [4]); 97% in series [1] (setting [5]); 96% in series [1] (setting [6]); 2.1% in series [1] (setting [7]); 1.3% in series [1] (setting [8]). The “Leakage (as %) after 1 week at 35° C.” value in series [1] (setting [9]) worked out at 2.0%; in series [1] (setting [10]), 7%; in series [1] (setting [11]) it was 8%; in series [1] (setting [12]) it was 26%; in series [1] (setting [13]), 8%; in series [2] (setting [14]), 1%. The results for the “Leakage (as %) after 1 week at 35° C.” value in series [2] (setting [15]), in series [2] (setting [16]) and in series [2] (setting [17]) were 104%, 101% and 28%, respectively.
